Data: PMC5063506, “A Novel Class of Small Molecule Agonists with Preference for Human over Mouse TLR4 Activation” (PLoS ONE, 2016)

Tests used:
human TLR4/MD2 = target: T1, human TLR4/MD2 (Homo sapiens, UniProt O00206+Q9Y6Y9); experiment: hTLR4/MD2-HEK293 transfectant SEAP (QUANTI-Blue) dose response, AUC; type: cell-based; details: 1 μg/ml to 4 ng/ml, 24 h, SEAP OD 650 nm vs log concentration
T1 construct: host or cells: HEK293
Procedure: Cells were seeded in tissue culture treated clear flat bottom polystyrene 96 well plates (Costar, 3598) at 1e4 cells/well. Concentration-response curves were generated by addition of test compounds and incubation for 20 h at 37°C in an atmosphere of 5% CO2. LPS (E. coli 0111:B4, Ultra-pure, Invivogen) or PHAD (Avanti Polar Lipids) was used as a positive control. The SEAP released was quantified using p nitrophenyl phosphate as a substrate, and the absorbance at 405 nm was measured at 30 second intervals over several minutes using a microplate reader. Some data are recorded as the pEC50, the negative log of the EC50 value. Other data generated from these reporter cell lines were converted to AUC (area under the curve) values by interpolation of fitted cubic spline curve between OD value and log concentration levels. The calculation is performed using MESS package in statistical software R (www.r-project.org/).
Fig 4 Ugi compounds preferentially activate TLR4-HEK transfectants expressing human MD2. A-B) HEK293 cells transfected with human TLR4/MD2 or mouse TLR4/MD2 (InVivogen) were stimulated with TLR4 agonists including MPL, PHAD, and Ugi compounds at 1 μg/ml to 4 ng/ml and with LPS at 25 ng/ml to 64 pg/ml for 24 h. SNs were analyzed for SEAP content by the QUANTI-Blue assay (InVivogen) and analysis at 650 nm by spectrophotometer. AUC (area under the curve) values were calculated as in Methods. No AUC value was calculated for LPS since it was utilized with a different dose range. C) HEK transfectants with cis- or trans-species expression of TLR4, MD2, and CD14 were stimulated with Ugi compounds in a dose response range of 9 μM to 1 nM or with LPS (boxes) at 75 ng/ml to 5 pg/ml for 48 h. Data was obtained as Vmax calculated over the initial linear portion of the kinetic absorbance measurements. The AUC (area under the curve) value for the dose response curve of Vmax vs log10 (molar units) was calculated for each compound using Trapezoidal rule. TEXT PRINTED IN THE PICTURE: (A) MPL: hTLR4-HEK AUC: 0.55 | (A) AZ617: hTLR4-HEK AUC: 5.90 | (A) AZ618: hTLR4-HEK AUC: 6.56 | (A) AZ839: hTLR4-HEK AUC: 6.00 | (A) AZ161: hTLR4-HEK AUC: 5.54 | (A) AZ902: hTLR4-HEK AUC: 7.04 | (A) GLA: hTLR4-HEK AUC: 3.75 | (B) MPL: mTLR4-HEK AUC: 13.27 | (B) AZ617: mTLR4-HEK AUC: 0.89 | (B) AZ618: mTLR4-HEK AUC: 1.03 | (B) AZ839: mTLR4-HEK AUC: 0.93 | (B) AZ161: mTLR4-HEK AUC: 0.99 | (B) AZ902: mTLR4-HEK AUC: 1.55 | (B) GLA: mTLR4-HEK AUC: 14.24

[1] = test system: guinea pig TLR4, MD2, and CD14; experiment: Guinea-pig TLR4 reporter agonist assay (HEK293 SEAP, DDAO phosphate); type: cell-based; details: 10^-5 to 10^-10 M, 20 h, % of maximum 1 μM LPS signal
From the text: Fragments of guinea pig TLR4 were identified by searching the Ensembl genome browser database (http://www.ensembl.org/index.html) using the BLAST algorithm and discontiguous mega blast of the NCBI trace archives (http://www.ncbi.nlm.nih.gov/blast/tracemb.shtml) using the DNA sequence of human TLR4 Isotype A as the search string. Guinea pig CD14 was assembled in silico from fragments identified in the NCBI trace archives using human CD14 as the search string (76% similar/72% identical). Fragments corresponding to guinea pig MD2 were identified by searching the Ensembl genome browser database and NCBI trace archives with human MD2 as the search string (72% similar/68% identical). Sequence information was used to design primers for PCR amplification of full length coding sequences from guinea pig spleen cDNA. Sequences for guinea pig MD2 and CD14 were as predicted in silico. gpTLR4 was cloned into the expression vector pUNO (Invivogen). gpMD2 and gpCD14 were cloned together into pDUO (Invivogen) for co-expression. gpMD2 was also cloned into pUNO for transient co-expression with gpTLR4. A stable mixed population expressing gpTLR4 /CD14/MD2 was made by transfecting the gpTLR4/pUNO and gpMD2 + gpCD14/pDUO constructs into a HEK293 cell-line containing a stably integrated pNiFty2-SEAP reporter plasmid (Invivogen) using Fugene-6 (Roche). […]
SEAP detection assay was performed as previous described by. […] Plates were read using the Envision plate reader excitation λex 620nm, emission λem 665nm. Data was analyzed as % maximum 1 μM Ultrapure (0111:B4) LPS activation signal (Invivogen).
Fig 5 Ugi compounds activate guinea pig TLR4/MD2-HEK transfectants. […] The plates were developed with the addition of DDAO phosphate as substrate and then read on a plate reader at 620 nm. Data were analyzed as % of the maximum 1 μM Ultrapure (0111:B4) LPS activation signal.

T1 sequence (O00206 24-839): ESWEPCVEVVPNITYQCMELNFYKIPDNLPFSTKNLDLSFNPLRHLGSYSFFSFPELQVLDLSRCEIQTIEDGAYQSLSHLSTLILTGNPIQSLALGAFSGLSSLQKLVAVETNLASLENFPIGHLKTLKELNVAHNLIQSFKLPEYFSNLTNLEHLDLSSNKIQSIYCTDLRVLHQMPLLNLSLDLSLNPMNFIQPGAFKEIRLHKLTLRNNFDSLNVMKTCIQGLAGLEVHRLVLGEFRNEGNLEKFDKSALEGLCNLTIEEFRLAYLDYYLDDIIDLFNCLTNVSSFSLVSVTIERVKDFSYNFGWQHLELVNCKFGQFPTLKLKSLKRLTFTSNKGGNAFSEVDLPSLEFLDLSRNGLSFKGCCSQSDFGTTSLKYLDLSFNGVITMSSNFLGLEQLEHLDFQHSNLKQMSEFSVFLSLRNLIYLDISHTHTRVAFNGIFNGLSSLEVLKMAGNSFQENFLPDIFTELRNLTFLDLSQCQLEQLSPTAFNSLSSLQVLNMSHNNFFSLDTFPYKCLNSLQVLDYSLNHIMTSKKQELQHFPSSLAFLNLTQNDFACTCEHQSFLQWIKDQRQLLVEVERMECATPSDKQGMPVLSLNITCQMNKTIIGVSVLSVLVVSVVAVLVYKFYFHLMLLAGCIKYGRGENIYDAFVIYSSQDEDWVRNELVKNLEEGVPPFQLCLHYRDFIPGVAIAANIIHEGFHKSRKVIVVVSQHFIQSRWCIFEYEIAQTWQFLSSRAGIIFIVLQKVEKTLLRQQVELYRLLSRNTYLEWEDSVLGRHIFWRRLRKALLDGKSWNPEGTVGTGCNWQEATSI
T1 sequence (Q9Y6Y9 19-160): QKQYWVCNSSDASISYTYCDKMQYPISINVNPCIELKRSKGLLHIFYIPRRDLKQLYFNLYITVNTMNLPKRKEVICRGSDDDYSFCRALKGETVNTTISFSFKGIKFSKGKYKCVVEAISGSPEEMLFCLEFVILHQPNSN

| SMILES | hTLR4-HEK AUC (human TLR4/MD2) | potency on gpTLR4/gpMD2/gpCD14 HEK293 transfectants [1] |
| --- | --- | --- |
| Cc1cc(C)cc(N(C(=O)c2cc(-c3ccccc3)n(-c3ccccc3)n2)C(C(=O)NC2CCCC2)c2ccc(CC(=O)O)cc2)c1 (stereo not shown) [AZ618, 2-(4-(2-(cyclopentylamino)-1-(N-(3,5-dimethylphenyl)-1,5-diphenyl-1H-pyrazole-3-carboxamido)-2-oxoethyl)phenyl)acetic acid] | 6.56 |  |
| CC(C)(C)c1ccc(N(C(=O)c2cc(-c3ccccc3)n(-c3ccccc3)n2)C(C(=O)NC2CCCC2)c2ccc(CC(=O)O)cc2)cc1 (stereo not shown) [AZ902] | 7.04 | less active but still positive |
| O=C(O)Cc1ccc(C(C(=O)NC2CCCC2)N(C(=O)c2cc(-c3ccccc3)n(-c3ccccc3)n2)c2ccc3c(c2)CCC3)cc1 (stereo not shown) [AZ617] | 5.90 | potency comparable to LPS |
| Cc1ccc(N(C(=O)c2cc(-c3ccccc3)n(-c3ccccc3)n2)C(C(=O)NC2CCCC2)c2ccc(CC(=O)O)cc2)cc1Cl (stereo not shown) [AZ161] | 5.54 | potency comparable to LPS |
